From ChEMBL document CHEMBL1287737, “Identification of potent and reversible cruzipain inhibitors for the treatment of Chagas disease” (Bioorg Med Chem Lett, 2010) come the findings set out here.

Some targets named below: Cruzipain (Trypanosoma cruzi, UniProt P25779); Procathepsin L (Homo sapiens, UniProt P07711); Cathepsin B (Homo sapiens, UniProt P07858).
A further data set concerns the target Cathepsin S (Homo sapiens, UniProt P25774). As to the kind of experiment: Inhibition of human Cat S expressed in Ramos cells. Type of data set: cell-based.
Data set [1] in a line: Oral bioavailability in rat. To be noted: in vivo. Type of data set: ADME, organism-based.
Data set [2] in a line: Half life in rat. Type of data set: ADME, organism-based. To be noted: in vivo.
A short description of data set [3]: Oral bioavailability in dog. Type of data set: ADME, organism-based, Canis lupus familiaris. To be noted: in vivo.
Another data set concerns the target T1, Cathepsin K (Homo sapiens, UniProt P43235).
T1 sequence (P43235 whole entry): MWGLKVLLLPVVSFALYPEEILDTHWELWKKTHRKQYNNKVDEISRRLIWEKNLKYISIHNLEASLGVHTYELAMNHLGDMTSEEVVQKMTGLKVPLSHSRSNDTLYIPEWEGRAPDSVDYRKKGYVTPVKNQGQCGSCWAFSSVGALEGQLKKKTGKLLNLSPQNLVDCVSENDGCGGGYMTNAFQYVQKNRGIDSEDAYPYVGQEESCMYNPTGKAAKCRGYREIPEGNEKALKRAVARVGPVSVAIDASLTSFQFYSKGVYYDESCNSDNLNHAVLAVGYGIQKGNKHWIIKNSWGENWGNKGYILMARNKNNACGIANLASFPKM
As to the kind of experiment: Inhibition of human Cat K expressed in Ramos cells. Type of data set: cell-based.

The target in a further data set is T2, Cathepsin L2 (Homo sapiens, UniProt O60911).
T2 sequence (O60911 whole entry): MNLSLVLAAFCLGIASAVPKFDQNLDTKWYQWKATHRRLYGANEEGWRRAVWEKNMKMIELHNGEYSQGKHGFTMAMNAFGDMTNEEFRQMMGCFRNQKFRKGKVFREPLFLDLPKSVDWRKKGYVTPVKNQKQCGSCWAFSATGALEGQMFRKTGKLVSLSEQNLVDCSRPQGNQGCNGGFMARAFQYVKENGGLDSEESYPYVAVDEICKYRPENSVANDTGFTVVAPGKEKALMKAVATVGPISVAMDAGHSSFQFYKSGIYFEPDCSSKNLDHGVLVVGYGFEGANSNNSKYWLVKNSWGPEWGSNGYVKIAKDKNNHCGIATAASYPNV
As to the kind of experiment: Inhibition of human Cat V.

Data set [4] can be described thus: Half life in dog. To be noted: in vivo. The format is ADME, organism-based, Canis lupus familiaris.
Data set [5] can be described thus: Half life in mouse. As to conditions: in vivo. The format is ADME, organism-based.
The next data set has as its system Trypanosoma cruzi. As to the kind of experiment: Antimicrobial activity against Trypanosoma cruzi infected in mouse assessed as reduction in parasitemia. The format is functional, organism-based.
The species named for a further data set is Mus musculus. As to the kind of experiment: Toxicity in Trypanosoma cruzi infected mouse. The format is organism-based. As to conditions: in vivo.

Activity calls are given as the source filed them. No cut-off for these calls is given here.

Chain of Cathepsin S (P25774 whole entry): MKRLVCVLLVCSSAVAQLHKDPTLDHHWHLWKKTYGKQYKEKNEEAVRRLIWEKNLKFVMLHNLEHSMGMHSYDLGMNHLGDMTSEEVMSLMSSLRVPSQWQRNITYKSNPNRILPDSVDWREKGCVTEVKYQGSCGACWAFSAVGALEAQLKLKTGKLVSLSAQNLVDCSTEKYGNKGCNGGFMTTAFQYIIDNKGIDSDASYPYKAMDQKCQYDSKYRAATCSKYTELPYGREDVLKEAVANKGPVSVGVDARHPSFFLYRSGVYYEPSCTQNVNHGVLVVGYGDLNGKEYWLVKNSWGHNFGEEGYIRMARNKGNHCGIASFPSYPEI
Chain of Procathepsin L (P07711 whole entry): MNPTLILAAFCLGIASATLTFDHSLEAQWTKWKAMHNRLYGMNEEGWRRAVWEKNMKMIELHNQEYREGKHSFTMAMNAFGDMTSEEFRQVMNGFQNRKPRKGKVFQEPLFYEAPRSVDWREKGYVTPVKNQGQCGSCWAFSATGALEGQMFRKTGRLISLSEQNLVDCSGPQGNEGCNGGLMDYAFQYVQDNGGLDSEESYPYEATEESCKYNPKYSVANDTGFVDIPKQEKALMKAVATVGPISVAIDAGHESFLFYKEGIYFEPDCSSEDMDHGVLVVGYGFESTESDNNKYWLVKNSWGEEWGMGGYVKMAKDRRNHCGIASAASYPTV
Chain of Cruzipain (P25779 whole entry): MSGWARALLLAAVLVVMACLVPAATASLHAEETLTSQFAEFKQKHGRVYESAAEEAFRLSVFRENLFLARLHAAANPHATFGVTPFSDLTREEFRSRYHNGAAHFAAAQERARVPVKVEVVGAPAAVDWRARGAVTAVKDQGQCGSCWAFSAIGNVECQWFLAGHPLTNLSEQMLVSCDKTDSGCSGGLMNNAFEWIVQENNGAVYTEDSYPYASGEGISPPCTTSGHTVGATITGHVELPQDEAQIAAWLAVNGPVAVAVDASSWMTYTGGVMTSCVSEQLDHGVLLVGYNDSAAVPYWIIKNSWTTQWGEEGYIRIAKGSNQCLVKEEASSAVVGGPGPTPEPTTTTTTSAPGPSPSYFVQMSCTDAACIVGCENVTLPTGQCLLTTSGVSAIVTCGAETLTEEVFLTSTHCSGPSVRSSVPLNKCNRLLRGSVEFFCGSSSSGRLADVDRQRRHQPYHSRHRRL
Description for Cathepsin B: Inhibition of human Cat B in HepG2 cells
Description for Cruzipain: Inhibition of Trypanosoma cruzi Cruzipain
Description for Procathepsin L: Inhibition of human Cat L

The IC50 is the concentration that inhibits the measured activity by half. Lower therefore signals greater potency. As for `CC(C)(F)C[C@H](N[C@@H](c1ccc(-c2ccc(S(C)(=O)=O)cc2)cc1)C(F)(F)F)C(=O)N[C@H](C#N)CC(F)(F)F`, the IC50 on Cruzipain is 130 nM; against Procathepsin L, 2630 nM.

With `CC(C)C[C@H](N[C@@H](c1ccc(-c2ccc(S(C)(=O)=O)cc2)cc1)C(F)(F)F)C(=O)N[C@H](C#N)Cc1ccccc1`, the IC50 is 0.2 nM at Cruzipain, 163 nM at Cathepsin B and 117 nM on Procathepsin L.

Turning to `CS(=O)(=O)c1ccc(-c2ccc([C@H](N[C@@H](CC3CC3)C(=O)N[C@H](C#N)Cc3ccccc3)C(F)(F)F)cc2)cc1`, the IC50 stood at 231 nM at Cathepsin B and 5250 nM at Procathepsin L.

As usually defined, the bioavailability is the share of a dose that reaches the circulation, judged against a reference dose that is usually intravenous. The low end stands for little systemic uptake, the high end for much systemic uptake. The term half-life denotes the time in which the quantity being followed falls by half. High values mean slow decline, low ones rapid decline. Turning to `CC(C)[C@H](N[C@@H](c1ccc(-c2ccc([C@@H](O)C(F)F)cc2)cc1)C(F)(F)F)C(=O)N[C@H](C#N)Cc1ccc(C#N)cc1F`, the IC50 at Cathepsin S came to 322 nM; against Cathepsin K, 2 nM; at Cathepsin L2 it was 69 nM; on Cathepsin B, 87 nM; at Procathepsin L it was 1060 nM. The bioavailability in data set [1] came to 20%; in [3], 30%. The half-life in data set [2] is 5.2 h; in [4] it was 4.6 h.

In the case of `CS(=O)(=O)c1ccc(-c2ccc([C@H](N[C@H](C(=O)N[C@H](C#N)Cc3ccccc3)C3CC3)C(F)(F)F)cc2)cc1`, the results for the IC50 at Cruzipain, at Cathepsin B and against Procathepsin L were 7 nM, 68 nM and 751 nM, respectively.

Take `CC(C)(F)C[C@H](N[C@@H](c1ccc(-c2ccc(S(C)(=O)=O)cc2)cc1)C(F)(F)F)C(=O)N[C@H](C#N)Cc1ccc(C#N)cc1F`: the IC50 was 9 nM against Cathepsin B and 49 nM against Procathepsin L.

`CS(=O)(=O)c1ccc(-c2ccc([C@H](N[C@@H](Cc3ccccc3)C(=O)N[C@H](C#N)Cc3ccccc3)C(F)(F)F)cc2)cc1`: the IC50 against Cruzipain was found to be 7 nM; on Cathepsin B it was 577 nM; against Procathepsin L it was 458 nM.

Turning to `CC(C)(F)C[C@H](N[C@@H](c1ccc(-c2ccc(S(C)(=O)=O)cc2)cc1)C(F)(F)F)C(=O)N[C@H](C#N)Cc1ccncc1`, the IC50 was 79 nM against Cathepsin B and 219 nM on Procathepsin L.

`CC(C)(F)C[C@H](N[C@@H](c1ccc(-c2ccc(S(C)(=O)=O)cc2)cc1)C(F)(F)F)C(=O)N[C@H](C#N)Cc1ccccc1` had a half-life in data set [5] of under 0.5 h. Also, the figures for the IC50 on Cathepsin B and against Procathepsin L were 122 nM and 966 nM, respectively.

For the compound `CC(C)(F)C[C@H](N[C@@H](c1ccc(-c2ccc(-c3ccncc3)cc2)cc1)C(F)(F)F)C(=O)N[C@H](C#N)Cc1ccccc1`, the IC50 at Procathepsin L was 436 nM.

`CC(C)(F)C[C@H](N[C@@H](c1ccc(-c2ccc(C3(C(=O)N4CCOCC4)CC3)cc2)cc1)C(F)(F)F)C(=O)N[C@H](C#N)Cc1ccccc1`: the IC50 on Cathepsin B is 64 nM; on Procathepsin L it was 1080 nM.

Take `CC(C)(F)C[C@H](N[C@@H](c1ccc(-c2ccc(S(C)(=O)=O)cc2)cc1)C(F)(F)F)C(=O)N[C@H](C#N)CCc1ccccc1`: the IC50 against Cruzipain is 510 nM; against Cathepsin B, 397 nM; against Procathepsin L, over 10000 nM.

`CS(=O)(=O)c1ccc(-c2ccc([C@H](N[C@@H](CC(Cl)Cl)C(=O)N[C@H](C#N)Cc3ccccc3)C(F)(F)F)cc2)cc1`: the results for the 50% inhibitory concentration (IC50) against Cathepsin B and against Procathepsin L were 383 nM and 42 nM, respectively.

In the case of `CC(C)C[C@H](N[C@@H](c1ccc(-c2ccc(N3CCNCC3)cc2)cc1)C(F)(F)F)C(=O)NCC#N`, at Cruzipain, the IC50 came out at 1.8 nM. For the same compound, the outcome in the data set on Trypanosoma cruzi was Active. Further, the Activity entry in the data set filed under Mus musculus was “Non-toxic”.

For `CC(C)(F)C[C@H](N[C@@H](c1ccc(-c2ccc(S(C)(=O)=O)cc2)cc1)C(F)(F)F)C(=O)N[C@@H](C#N)Cc1ccc(C#N)cc1F`, the IC50 against Cathepsin B came to 260 nM; on Procathepsin L, 711 nM.

Turning to `CC(C)(F)C[C@H](N[C@@H](c1ccc(-c2cn[nH]c2)cc1)C(F)(F)F)C(=O)N[C@H](C#N)Cc1ccccc1`, the IC50 against Cruzipain was 33 nM; against Cathepsin B, 59 nM; against Procathepsin L, 379 nM.

On to `CC(C)(F)C[C@H](N[C@@H](c1ccc(-c2ccc(S(C)(=O)=O)cc2)cc1)C(F)(F)F)C(=O)N[C@H](C#N)C1(c2ccccc2)CC1`, for which the IC50 against Cruzipain, at Cathepsin B and on Procathepsin L was over 10000 nM throughout.

On to `CC(C)[C@H](N[C@@H](c1ccc(-c2ccc(S(C)(=O)=O)cc2)cc1)C(F)(F)F)C(=O)N[C@H](C#N)Cc1ccccc1`, for which the IC50 is 433 nM at Cathepsin B and 631 nM on Procathepsin L.

Take `CC(C)[C@H](N[C@@H](c1ccc(-c2ccc(S(C)(=O)=O)cc2)cc1)C(F)(F)F)C(=O)N[C@H](C#N)Cc1ccc(C#N)cc1F`: the IC50 amounted to 169 nM on Cathepsin S; 0.9 nM on Cathepsin K; 28 nM against Cathepsin L2; 143 nM on Cathepsin B; 121 nM on Procathepsin L.

For `CC(C)(F)C[C@H](N[C@@H](c1ccc(-c2ccc(C3(C(N)=O)CC3)cc2)cc1)C(F)(F)F)C(=O)N[C@H](C#N)Cc1ccccc1`, the half-maximal inhibitory concentration (IC50) against Cathepsin B was found to be 27 nM; at Procathepsin L, 426 nM.

As to `CC(C)(C)[C@H](N[C@@H](c1ccc(-c2ccc(S(C)(=O)=O)cc2)cc1)C(F)(F)F)C(=O)N[C@H](C#N)Cc1ccccc1`, the IC50 at Cruzipain is 380 nM; against Cathepsin B, over 10000 nM; at Procathepsin L, over 10000 nM.

With `CC(C)[C@H](N[C@@H](c1ccc(-c2ccc(C3(C(N)=O)CC3)cc2)cc1)C(F)(F)F)C(=O)N[C@H](C#N)Cc1ccc(C#N)cc1F`, the IC50 on Cathepsin S stood at 408 nM; on Cathepsin K it was 3 nM; against Cathepsin L2, 79 nM; at Cathepsin B, 41 nM; at Procathepsin L it was 98 nM.

With `CC(C)(F)C[C@H](N[C@@H](c1ccc(-c2ccc([C@@H](O)C(F)F)cc2)cc1)C(F)(F)F)C(=O)N[C@H](C#N)Cc1ccccc1`, the results for the IC50 at Cathepsin B and against Procathepsin L were 48 nM and 1090 nM, respectively.
